Source: US20240400564A1 (Syndax Pharmaceuticals, Inc, priority 2021, published 2024)

What was measured:
Menin-MLL = target: T1, Menin-MLL (Homo sapiens, UniProt O00255); experiment: Determination of binding constants to Menin-MLL (HTRF, EC50 and Ki); settings: 0.25 nM H-FL-Menin, 3.2 nM FITC-MLL-4-43, 24 hr incubation
T1 sequence (O00255 1-610): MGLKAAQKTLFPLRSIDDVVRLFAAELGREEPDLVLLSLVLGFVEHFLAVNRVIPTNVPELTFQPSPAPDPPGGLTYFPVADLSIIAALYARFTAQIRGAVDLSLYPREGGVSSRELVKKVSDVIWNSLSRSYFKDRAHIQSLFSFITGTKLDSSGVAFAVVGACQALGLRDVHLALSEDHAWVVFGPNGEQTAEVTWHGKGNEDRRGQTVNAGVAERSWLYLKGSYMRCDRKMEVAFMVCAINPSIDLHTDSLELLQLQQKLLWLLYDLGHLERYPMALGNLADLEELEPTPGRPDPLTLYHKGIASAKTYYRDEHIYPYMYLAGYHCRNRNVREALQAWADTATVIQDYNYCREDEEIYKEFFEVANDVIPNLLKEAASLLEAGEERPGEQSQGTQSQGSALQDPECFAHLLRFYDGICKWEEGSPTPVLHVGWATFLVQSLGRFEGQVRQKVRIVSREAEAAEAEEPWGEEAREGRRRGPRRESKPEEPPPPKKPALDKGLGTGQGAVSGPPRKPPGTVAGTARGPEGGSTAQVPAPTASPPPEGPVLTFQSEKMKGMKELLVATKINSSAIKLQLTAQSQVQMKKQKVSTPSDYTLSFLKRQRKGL

[1] = test system: MLLr leukemia cell line MV4-11; experiment: Cell proliferation assay MV4;11 (CellTiter-Glo, 72 hours); type: cell-based; settings: Homo sapiens; MV4-11 cells, 72 hours, CellTiter-Glo; read-out: MV4; 11 IC50
Summary of the method: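 Cells in IMDM/10% FBS, seeded from a 15,000 cells/ml suspension, were exposed for 72 h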

[2] = target: T2, human Menin and N-terminal portion of human MLL (amino acids 4-43) (Homo sapiens, UniProt O00255); experiment: Menin-MLL competition assay (HTRF); type: binding; settings: 1 hr incubation
T2 construct: H-FL-Menin diluted to 4 nM in assay buffer
T2 sequence (O00255 1-610): T1 sequence (O00255 1-610)
Summary of the method: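 HTRF competition: 1 nM His-tagged full-length Menin with 2 nM Tb-anti-His6 and 1 nM FITC-MLL(4-43), 1 h at room temperature in Tris pH 7.4 buffer with DTT, BSA, Triton X-100; 3.16-fold compound series, 2% DMSO. Ratio 520/485 normalized to DMSO and 1 μM reference-compound controls for IC50.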

hERG = hERG (Homo sapiens, UniProt Q12809); experiment: Patch clamp assay (hERG tail currents, whole-cell)
Chain of hERG (Q12809 whole entry): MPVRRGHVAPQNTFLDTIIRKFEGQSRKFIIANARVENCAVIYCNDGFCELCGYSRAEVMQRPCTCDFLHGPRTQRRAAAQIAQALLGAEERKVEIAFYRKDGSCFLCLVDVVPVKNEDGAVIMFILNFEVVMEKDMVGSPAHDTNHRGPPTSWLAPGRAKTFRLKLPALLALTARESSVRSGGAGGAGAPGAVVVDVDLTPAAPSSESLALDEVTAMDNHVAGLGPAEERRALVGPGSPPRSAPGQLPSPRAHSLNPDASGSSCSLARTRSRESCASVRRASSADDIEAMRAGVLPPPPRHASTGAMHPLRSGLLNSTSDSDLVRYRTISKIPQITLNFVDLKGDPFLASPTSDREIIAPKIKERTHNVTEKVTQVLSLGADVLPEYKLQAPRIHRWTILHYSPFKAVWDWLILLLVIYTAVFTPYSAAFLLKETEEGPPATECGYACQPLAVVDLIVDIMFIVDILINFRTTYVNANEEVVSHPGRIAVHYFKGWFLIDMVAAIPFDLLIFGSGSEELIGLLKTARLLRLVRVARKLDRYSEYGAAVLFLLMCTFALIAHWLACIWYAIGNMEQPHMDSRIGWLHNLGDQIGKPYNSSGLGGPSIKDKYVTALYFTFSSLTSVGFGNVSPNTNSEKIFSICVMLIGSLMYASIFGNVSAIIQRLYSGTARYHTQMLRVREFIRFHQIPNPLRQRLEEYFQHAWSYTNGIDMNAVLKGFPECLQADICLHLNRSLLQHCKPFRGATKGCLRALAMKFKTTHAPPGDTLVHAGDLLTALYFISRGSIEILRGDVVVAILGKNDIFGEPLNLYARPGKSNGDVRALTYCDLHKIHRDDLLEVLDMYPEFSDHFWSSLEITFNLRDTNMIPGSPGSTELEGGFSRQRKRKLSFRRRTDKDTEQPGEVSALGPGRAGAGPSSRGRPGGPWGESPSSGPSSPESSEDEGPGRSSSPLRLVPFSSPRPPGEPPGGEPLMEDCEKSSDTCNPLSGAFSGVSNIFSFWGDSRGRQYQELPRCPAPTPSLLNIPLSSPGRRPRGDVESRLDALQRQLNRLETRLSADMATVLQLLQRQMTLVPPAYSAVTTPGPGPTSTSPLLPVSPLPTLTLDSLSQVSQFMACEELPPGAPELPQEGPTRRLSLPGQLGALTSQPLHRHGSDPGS

SMILES	Ki (Menin-MLL) [nM]	IC50 [1] [nM]	IC50 [2] [nM]	further results
CCS(=N)(=O)N[C@@H]1CC[C@@H](CN2CCC3(CC2)CN(c2ncncc2Oc2ccc(F)cc2C(=O)N(C(C)C)C(C)C)C3)OC1 (mixture of isomers) [Example 225, 2-((4-(7-(((2S,5R)-5-(Ethylsulfonoamidimidamido)tetrahydro-2H-pyran-2-yl)methyl)-2,7-diazaspiro[3.5]nonan-2-yl)pyrimidin-5-yl)oxy)-5-fluoro-N,N-diisopropylbenzamide]	< 1	100 to 1000		
CCN(C(=O)c1cc(F)ccc1Oc1cncnc1N1CC2(CCN(C[C@@H]3CC[C@@H](NS(=O)(=O)C4CCOC4)CO3)CC2)C1)C(C)C (stereo partly drawn) [Example 10, N-Ethyl-5-fluoro-N-isopropyl-2-((4-(7-(((2S,5R)-5-((tetrahydrofuran)-3-sulfonamido)tetrahydro-2H-pyran-2-yl)methyl)-2,7-diazaspiro[3.5]nonan-2-yl)pyrimidin-5-yl)oxy)benzamide]		< 100	< 100	
CC(C)N(C(=O)c1cc(F)ccc1Oc1cncnc1N1CC2(CCN(C[C@@H]3CC[C@@H](NS(C)(=O)=O)CO3)CC2)C1)C1CC1 [Example 18, N-Cyclopropyl-5-fluoro-N-isopropyl-2-((4-(7-(((2S,5R)-5-(methylsulfonamido)tetrahydro-2H-pyran-2-yl)methyl)-2,7-diazaspiro[3.5]nonan-2-yl)pyrimidin-5-yl)oxy)benzamide]		< 100	< 100	
CCCNC(=O)N[C@@H]1CC[C@@H](CN2CCC3(CC2)CN(c2ncncc2Oc2ccc(F)cc2C(=O)N(CC)C(C)C)C3)OC1 [Example 38, N-Ethyl-5-fluoro-N-isopropyl-2-((4-(7-(((2S,5R)-5-(3-propylureido)tetrahydro-2H-pyran-2-yl)methyl)-2,7-diazaspiro[3.5]nonan-2-yl)pyrimidin-5-yl)oxy)benzamide]			< 100	Menin-MLL Ki HTRF Assay: EC50 (nM) (Menin-MLL): ++ (250 nM and <100 nM)
CCN(C(=O)c1cc(F)ccc1Oc1cncnc1N1CC2(CCN(C[C@@H]3CC[C@@H](NC(=O)NCC(F)F)CO3)CC2)C1)C(C)C [Example 41, 2-((4-(7-(((2S,5R)-5-(3-(2,2-Difluoroethyl)ureido)tetrahydro-2H-pyran-2-yl)methyl)-2,7-diazaspiro[3.5]nonan-2-yl)pyrimidin-5-yl)oxy)-N-ethyl-5-fluoro-N-isopropylbenzamide]			< 100	Menin-MLL Ki HTRF Assay: EC50 (nM) (Menin-MLL): ++ (250 nM and <100 nM)
CCN(C(=O)c1cc(F)ccc1Oc1cncnc1N1CC2(CCN(C[C@@H]3CC[C@@H](NS(=O)(=O)N(C)C)CO3)CC2)C1)C(C)C [Example 49, 2-((4-(7-(((2S,5R)-5-((N,N-Dimethylsulfamoyl)amino)tetrahydro-2H-pyran-2-yl)methyl)-2,7-diazaspiro[3.5]nonan-2-yl)pyrimidin-5-yl)oxy)-N-ethyl-5-fluoro-N-isopropylbenzamide]			< 100	hERG % Remaining (hERG; 10 μM compound): +++ (≥66%); hERG % Remaining (hERG; 30 μM compound): +++ (≥66%)
CCS(=O)(=O)N[C@@H]1CC[C@@H](CN2CCC3(CC2)CN(c2ncncc2Oc2ccc(F)cc2C(=O)N(C(C)C)[C@H]2C[C@@H](O)C2)C3)OC1 [Example 50, 2-((4-(7-(((2S,5R)-5-(Ethylsulfonamido)tetrahydro-2H-pyran-2-yl)methyl)-2,7-diazaspiro[3.5]nonan-2-yl)pyrimidin-5-yl)oxy)-5-fluoro-N-((1s,3s)-3-hydroxycyclobutyl)-N-isopropylbenzamide]		< 100	< 100	
CCN(C(=O)c1cc(F)ccc1Oc1cncnc1N1CC2(CCN(C[C@H]3CC[C@H](NS(=O)(=O)CC)CO3)CC2)C1)C(C)C [Example 52, N-Ethyl-2-((4-(7-(((2R,5S)-5-(ethylsulfonamido)tetrahydro-2H-pyran-2-yl)methyl)-2,7-diazaspiro[3.5]nonan-2-yl)pyrimidin-5-yl)oxy)-5-fluoro-N-isopropylbenzamide]				EC50 (Menin-MLL): ≤ 50 nM
CC(C)N(C(=O)c1cc(F)ccc1Oc1cncnc1N1CC2(CCN(C[C@@H]3CC[C@@H](NS(=O)(=O)C(C)C)CO3)CC2)C1)[C@@H]1CCOC1 [Example 132, 5-Fluoro-N-isopropyl-2-((4-(7-(((2S,5R)-5-((1-methylethyl)sulfonamido)tetrahydro-2H-pyran-2-yl)methyl)-2,7-diazaspiro[3.5]nonan-2-yl)pyrimidin-5-yl)oxy)-N-((R)-tetrahydrofuran-3-yl)benzamide]				EC50 (Menin-MLL): 111 nM
CC(C)N(C(=O)c1cc(F)ccc1Oc1cncnc1N1CC2(CCN(C[C@@H]3CC[C@@H](NS(=O)(=O)C4CC4)CO3)CC2)C1)[C@H]1CCOC1 [Example 176, 2-((4-(7-(((2S,5R)-5-(Cyclopropanesulfonamido)tetrahydro-2H-pyran-2-yl)methyl)-2,7-diazaspiro[3.5]nonan-2-yl)pyrimidin-5-yl)oxy)-5-fluoro-N-isopropyl-N-((S)-tetrahydrofuran-3-yl)benzamide]	< 1	< 100		IC50 (hERG): > 50000 nM; hERG % Remaining (hERG; 10 μM compound): +++ (≥66%); hERG % Remaining (hERG; 30 μM compound): +++ (≥66%); hERG % Remaining (hERG; 100 μM compound): +++ (≥66%)
CC(C)N(C(=O)c1cc(F)ccc1Oc1cncnc1N1CC2(CCN(C[C@@H]3CC[C@@H](NS(=O)(=O)N(C)C)CO3)CC2)C1)[C@H]1CCOC1 [Example 177, 2-((4-(7-(((2S,5R)-5-((N,N-Dimethylsulfamoyl)amino)tetrahydro-2H-pyran-2-yl)methyl)-2,7-diazaspiro[3.5]nonan-2-yl)pyrimidin-5-yl)oxy)-5-fluoro-N-isopropyl-N-((S)-tetrahydrofuran-3-yl)benzamide]	< 1	< 100		hERG % Remaining (hERG; 10 μM compound): +++ (≥66%); hERG % Remaining (hERG; 30 μM compound): +++ (≥66%)
CCN(C(=O)c1cc(F)ccc1Oc1cncnc1N1CC2(CCN(C[C@@H]3CC[C@@H](NC(=O)Nc4ccccc4)CO3)CC2)C1)C(C)C [Example 215, N-Ethyl-5-fluoro-N-isopropyl-2-((4-(7-(((2S,5R)-5-(3-phenylureido)tetrahydro-2H-pyran-2-yl)methyl)-2,7-diazaspiro[3.5]nonan-2-yl)pyrimidin-5-yl)oxy)benzamide]				Menin-MLL Ki HTRF Assay: EC50 (nM) (Menin-MLL): ++ (250 nM and <100 nM)
CCS(=O)(=O)N[C@@H]1CC[C@@H](CN2CCC3(CC2)CN(c2ncncc2Oc2ccc(F)cc2C(=O)N(C(C)C)[C@H]2C[C@H](F)C2)C3)OC1 [Example 243, 2-((4-(7-(((2S,5R)-5-(Ethylsulfonamido)tetrahydro-2H-pyran-2-yl)methyl)-2,7-diazaspiro[3.5]nonan-2-yl)pyrimidin-5-yl)oxy)-5-fluoro-N-((1r,3r)-3-fluorocyclobutyl)-N-isopropylbenzamide]	< 1	< 100		
CCS(=O)(=O)N[C@@H]1CC[C@@H](CN2CCC3(CC2)CN(c2ncncc2Oc2ccc(F)cc2C(=O)N(C(C)C)[C@H]2C[C@@H](F)C2)C3)OC1 [Example 244, 2-((4-(7-(((2S,5R)-5-(ethylsulfonamido)tetrahydro-2H-pyran-2-yl)methyl)-2,7-diazaspiro[3.5]nonan-2-yl)pyrimidin-5-yl)oxy)-5-fluoro-N-((1s,3s)-3-fluorocyclobutyl)-N-isopropylbenzamide]	< 1	< 100		hERG % Remaining (hERG; 10 μM compound): +++ (≥66%); hERG % Remaining (hERG; 30 μM compound): ++ (233% and ≤66%)
CCS(=O)(=O)N[C@@H]1CC[C@@H](CN2CCC3(CC2)CN(c2ncncc2Oc2ccc(F)cc2C(=O)N(C(C)C)[C@H]2C[C@@H](C(F)F)C2)C3)OC1 [Example 245, N-((1s,3s)-3-(difluoromethyl)cyclobutyl)-2-((4-(7-(((2S,5R)-5-(ethylsulfonamido)tetrahydro-2H-pyran-2-yl)methyl)-2,7-diazaspiro[3.5]nonan-2-yl)pyrimidin-5-yl)oxy)-5-fluoro-N-isopropylbenzamide]	< 1	< 100		
CCS(=O)(=O)N[C@@H]1CC[C@@H](CN2CCC3(CC2)CN(c2ncncc2Oc2ccc(F)cc2C(=O)N(C(C)C)[C@H]2C[C@H](C(F)F)C2)C3)OC1 [Example 246, N-((1r,3r)-3-(Difluoromethyl)cyclobutyl)-2-((4-(7-(((2S,5R)-5-(ethylsulfonamido)tetrahydro-2H-pyran-2-yl)methyl)-2,7-diazaspiro[3.5]nonan-2-yl)pyrimidin-5-yl)oxy)-5-fluoro-N-isopropylbenzamide]	< 1	< 100		
